This is an account of results in patent US20030162727A1, “Use of cyp1b1inhibitors for treating cancer” (priority 2000, published 2003).

In general, Ki refers to the equilibrium dissociation constant of an inhibitor or competing ligand from its target. For orientation: IC50 means the midpoint of a concentration-inhibition curve. In general, inhibition refers to the share of the control response that was lost under treatment. The low end stands for a weak effect, the high end for a strong effect.

Values joined by “and” are separate entries in the source; they are usually repeats but may differ in a detail not shown here. Equal entries are not always repeated. Where two headings read alike, the source gives them in different places.

One series deals with V79MZ cells. Put plainly: cells. Conditions: for IC50: read-out: IC50 V79MZ (control vector). The method, then: (§1) A Chinese hamster […] fibroblast cell line (V79MZ) and a clone expressing human CYP1B1 (V79MZh1B1), were grown at 37° C., 5%CO2 and at 90% saturated humidity, in DMEM (Dulbecco's modified eagles medium) high glucose type supplemented with 1 mM sodium pyruvate, 10% fetal calf serum, 100 U penicillin/ml and 100 μg streptomycin/ml. Neither cell line expresses endogenous P450s, although cytochrome P450 reductase is present in both cell lines. The parental and CYP1B1 expressing cell lines double in cell number every 10-12 h and were sub-cultured at 1:50 ratio (i.e. 1 ml of cells to 50 ml of fresh media) every 4-5 days. The cells were not allowed to reach confluency at any time, to ensure optimal cell physiological conditions and maximal cytochrome P450 activity. Cells were routinely used at 3rd-5th passage for all experiments.
(§2) Docetaxel was obtained from Rhone-Poulenc Rorer. Optimal growth conditions were established. The same conditions were used for both cell lines; V79MZ and V79MZh1B1 cells at 60-80% confluence were harvested and seeded at 0.5-1×10^3 cells per well in 96 well culture plates. […] Cells treated with solvent alone acted as a negative control.
(§3) Enzyme inhibition studies were undertaken by co-administration of docetaxel and the known P450 CYP1 inhibitor ANF (Sigma) at different concentration in the media. Stock solutions of ANF (1 mM, 10 mM and 100 mM) were dissolved in DMSO and added to the media to give final concentrations of 1 μM, 10 μM and 100 μM ANF (in each case the final concentration of DMSO in media was 0.1%). Following 24 h exposure to each drug (with or without inhibitor), the media were removed and replaced with fresh media without drug. In this study, cells were then grown for three doubling times (36 h) with the media changed at 24 hr. […] Media were removed from the wells and replaced with 200 μl of fresh media, followed by addition of 50 μl of MTT solution (50 mg/ml of MTT (Sigma) in sterile PBS), the cells were incubated at 37° C. in a humidified atmosphere with 5%CO2/95% air for 4 h. The MTT containing media was then removed and 200 μl of DMSO plus 25 μl of glycine buffer (0.1 M glycine/0.1 M NaCl pH 10.5) added to the cells in each well. This procedure overcomes any effect that cell density or culture medium may have on the absorption spectrum. The absorbance of the formazan produced by the viable cells was measured once for each well at 540 nm on a Labsystems EMS microplate reader (Life Sciences International). To calculate the cell viability cells treated with solvent alone were assigned a value of 100% absorbance indicating zero cytotoxicity, i.e. 100% viability. The cytotoxic profile of each drug was evaluated in triplicate 96 well plates. Each plate included several controls (media only, cells only and cells treated with solvent alone). The 96 well plate format allowed eight concentrations of the appropriate drug per plate, with eight replicates (i.e. eight separate wells) per drug concentration, i.e. 8 measurements of absorbance for each concentration of drug per plate. There were three triplicate plates per experiment resulting in a total of 24 measurements of absorbance per concentration of drug.

The next series has as its system V79MZh1B1 cells. The series is described as follows: in vitro. As to conditions: for cytotoxicity in CYP1B1 expressing V79MZh1B1 cells: 24 h exposure, ANF at 1, 10 and 100 μM. The method, then:
as §1, §2, §3

In series [1] the target is T1, CYP1B1 (Homo sapiens, UniProt Q16678).
T1 sequence (Q16678 1-543): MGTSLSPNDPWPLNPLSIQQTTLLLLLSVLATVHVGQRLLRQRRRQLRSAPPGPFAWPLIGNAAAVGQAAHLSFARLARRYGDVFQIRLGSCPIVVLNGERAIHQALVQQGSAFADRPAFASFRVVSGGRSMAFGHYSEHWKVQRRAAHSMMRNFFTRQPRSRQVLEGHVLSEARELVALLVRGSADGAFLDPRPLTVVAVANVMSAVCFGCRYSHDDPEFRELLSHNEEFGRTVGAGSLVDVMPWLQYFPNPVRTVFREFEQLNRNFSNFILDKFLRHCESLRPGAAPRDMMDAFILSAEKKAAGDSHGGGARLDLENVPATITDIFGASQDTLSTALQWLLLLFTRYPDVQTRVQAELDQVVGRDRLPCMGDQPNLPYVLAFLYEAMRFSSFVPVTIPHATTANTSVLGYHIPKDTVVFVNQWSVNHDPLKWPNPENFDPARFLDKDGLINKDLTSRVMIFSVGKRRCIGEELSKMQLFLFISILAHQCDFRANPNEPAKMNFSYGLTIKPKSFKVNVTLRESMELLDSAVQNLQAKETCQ
The series is described as follows: Inhibition of EROD activity mediated by cDNA expressed cytochrome 1B1. Conditions: for Ki: Ki Values, Dixon re-plots of EROD activity, mean; for inhibition at 100 μM: human, pH 7.4. The text has this:
Recent immunohistochemical analysis of P4501B1 protein in a variety of solid tumours identified tumour-specific enzyme expression (Murray et al, 1998). This provides a mechanism of resistance to currently used anticancer agents, as well as, an approach for targeted prodrug therapy. 7-ethoxyresorufin deethylase activity (EROD) was used to define interactions with cytochrome 1B1 (CYP1B1). 7-Ethoxyresorufin is a known substrate for P4501B1. […] For this purpose, inhibition constants (Ki) have been calculated using in vitro kinetics from CYP1B1-mediated EROD activity. EROD activity and assay has been described previously by various authors (Lubet et al., 1985, Arch. Biochem. Biophys. 238: pp 43-48; Gentest Corporation, 6 Henshaw St., Woburn, Mass. 01801 USA, data sheet given with CYP1B1, catalogue number P220). 7-Ethoxyresorufin is enzymatically deethylated to a product called resorufin. The appearance of resorufin was monitored by a fluorescence detector set at 550 nm and 582 nm (excitation and emission wavelengths). […] Incubations contained: phosphate buffer at pH 7.4, 7-ethoxyresorufin, CYP1B1 Supersomes from Gentest Co (catalogue number P220) and nicotine adenine dinucleotide phosphate (NADP) as cofactor.
The metabolism of anti-cancer drugs by CYP1B1 was studied using an inhibition of EROD assay. […] Ki values were determined by the Dixon's replots: see Table 2.

For series [2], the target named is T1, CYP1B1. The series is described as follows: Biotransformation studies with CYP1B1. Conditions: metabolites produced by CYP1B1 incubation but not control incubations.
The next series can be described thus: in vitro. As to conditions: Chinese hamster. The method, then:
as §1, §2, §3

For series [3] the following is noted: fold less cytotoxic than paclitaxel; cited from earlier work.
Series [4] relates to CYP1B1 in kidney tumour samples. Put plainly: Kidney tumour assay, EROD metabolism with and without inhibitor. It counts as biochemical. The method, then: The effect of a CYP1B1 inhibitor was confirmed in an assay using kidney tumour samples. A buffer and NADP regenerating system was allowed to equilibrate at 37° C. and EROD (5 μM final concentration) was then added. This was followed by the addition of either P450 supersomes (control) or the appropriate tumour sample (1 mg). Supersomes were incubated for 15 minutes and tumour samples for 40 minutes.

Setting [5] is: 24 h drug exposure, MTT, concentration at which 50% of cells are viable.
Where [6] appears, read: Cricetulus griseus, V79MZ, 24 h.

Take `O=P1(N(CCCl)CCCl)NCCCO1` (centres unmarked) [Cyclophosphamide]: the “cytotoxicity in parental V79MZ cells” value in the series on V79MZ cells (24 h exposure, MTT, ANF at 1, 10 and 100 μM) was “No cytotoxicity”. In the series on V79MZh1B1 cells (MTT), the “cytotoxicity in CYP1B1 expressing V79MZh1B1 cells” value is given as “No cytotoxicity”. For the same molecule, the “inhibition of CYP1B1 activity, initial screening, in words” value at CYP1B1 [1] (initial screening, 1 μM ethoxyresorufin, 100 μM agent) is “did not inhibit CYP1B1 activity”.

Turning to `CC(=O)N1CCN(c2ccc(OCC3COC(Cn4ccnc4)(c4ccc(Cl)cc4Cl)O3)cc2)CC1` (centres unmarked) [Ketoconazole], on CYP1B1 [1], the “Inhibition Type” value is listed as “non-competitive”; the inhibition constant Ki was 0.3 µM and 0.27 µM.

As for `N.N.[Cl][Pt][Cl]` [Cisplatin], the IC50 with V79MZ cells (setting [5]) came out at 4.4 µM.

For `CC(=O)O[C@H]1C(=O)[C@@]2(C)[C@H]([C@H](OC(=O)c3ccccc3)[C@]3(O)C[C@H](OC(=O)[C@H](O)[C@@H](NC(=O)c4ccccc4)c4ccccc4)C(C)=C1C3(C)C)[C@]1(OC(C)=O)CO[C@@H]1C[C@@H]2O` [Paclitaxel], the IC50 in the series with V79MZ cells (setting [6]) worked out at 0.035 µM. The “difference in cytotoxicity between CYP1B1 expressing and non-expressing cells” value with V79MZh1B1 cells is “no significant difference”. On CYP1B1 [1], this molecule returned a Ki of 7.85 µM and an inhibition at 100 μM of 53 to 99%. The “biotransformation by CYP1B1” value at CYP1B1 [2] was “biotransformed by CYP1B1”.

Take `COc1cccc2c1C(=O)c1c(O)c3c(c(O)c1C2=O)C[C@@](O)(C(=O)CO)C[C@@H]3O[C@H]1C[C@H](N)[C@H](O)[C@H](C)O1` [Doxorubicin]: in the series on V79MZ cells (setting [6]), the 50% inhibitory concentration (IC50) was 0.08 µM. In addition, half-maximal inhibition in “in vitro” (IC50 at 24 h) required 0.09 µM. Moreover, the “difference in cytotoxicity between CYP1B1 expressing and non-expressing cells” value in the series on V79MZh1B1 cells is reported as “no significant difference”. At CYP1B1 [1], the Ki is 2.6 µM and 2.58 µM; the inhibition at 100 μM was in the range of 53 to 99%.

Consider `CC(=O)O[C@H]1C(=O)[C@@]2(C)[C@H]([C@H](OC(=O)c3ccccc3)[C@]3(O)C[C@H](OC(=O)[C@H](O)[C@@H](NC(=O)c4ccccc4)c4ccccc4)C(C)=C1C3(C)C)[C@]1(OC(C)=O)CO[C@@H]1[C@@H](O)[C@@H]2O` [6-hydroxytaxol], for which the “cytotoxicity relative to parent compound paclitaxel” value in series [3] is 30 fold.

Consider `N.N.O=C([O-])C1(C(=O)[O-])CCC1.[Pt+2]` [Carboplatin], for which the 50% inhibitory concentration (IC50) was found to be 80 µM in the series on V79MZ cells (setting [5]) and 100 µM in the series on V79MZh1B1 cells (read-out: IC50 V79MZhB1, 24 h drug exposure, MTT, CYP1B1 expressing cells). In the series with V79MZh1B1 cells (V79MZh1B1 compared with V79MZ, MTT), the “difference in cytotoxicity between CYP1B1 expressing and non-expressing cells” value is reported as “no significant difference”.

Turning to `COc1cccc2c1C(=O)c1c(O)c3c(c(O)c1C2=O)C[C@@](O)(C(C)=O)C[C@@H]3O[C@H]1C[C@H](N)[C@H](O)[C@H](C)O1` [Daunomycin], at CYP1B1 [1], the Ki is 2.1 µM and 2.12 µM; the inhibition at 100 μM was in the range of 53 to 99%.

For the molecule `CC/C(=C(\c1ccccc1)c1ccc(OCCN(C)C)cc1)c1ccccc1` [Tamoxifen], the inhibition constant (Ki) on CYP1B1 [1] is 5 µM and 5.02 µM.

`C[C@]12CC[C@@H]3c4ccc(O)cc4CC[C@H]3[C@@H]1CC[C@@H]2O` [Estradiol]: at CYP1B1 [1], the “Inhibition Type” value is “competitive”.

Regarding `CC(=O)O[C@@]12CO[C@@H]1C[C@H](O)[C@@]1(C)C(=O)[C@H](O)C3=C(C)[C@@H](OC(=O)[C@H](O)[C@@H](NC(=O)OC(C)(C)C)c4ccccc4)C[C@@](O)([C@@H](OC(=O)c4ccccc4)[C@H]21)C3(C)C` [Docetaxel], the IC50 in the series with V79MZ cells (setting [6]) stood at 0.022 µM. Moreover, in “in vitro”, the IC50 at 24 h was 0.1 µM. For the same molecule, the “difference in cytotoxicity between CYP1B1 expressing and non-expressing cells” value in the series with V79MZh1B1 cells is on record as “at least four-fold”. Besides, on CYP1B1 [1], the “Inhibition Type” value is “competitive”, the Ki worked out at 28 µM and the inhibition at 100 μM is 53 to 99%.

`O=c1cc(-c2ccccc2)oc2c1ccc1ccccc12` [α-naphthoflavone]: the “cytotoxicity in CYP1B1 expressing V79MZh1B1 cells” value in the series with V79MZh1B1 cells (MTT) is “Neither cell line (parental or CYP1B1 expressing) showed cytotoxicity”. Moreover, the “CYP1B1 activity in metabolising EROD” value in series [4] (kidney tumour Sample 1, plus 10 nM ANF (252 without)) turned out to be 145 fmol/min/mg protein; in series [4] (kidney tumour Sample 2, plus 10 nM ANF (993 without)), 470 fmol/min/mg protein; in series [4] (kidney tumour Sample 3, plus 10 nM ANF (880 without)), 570 fmol/min/mg protein.

With `C[C@]12CC[C@H]3[C@@H](CCC4=CC(=O)CC[C@@]43C)[C@@H]1CC[C@@H]2O` [Testosterone], on CYP1B1 [1], the “Inhibition Type” value is on record as “competitive”.

Take `O=c1[nH]cc(F)c(=O)[nH]1` [5-Fluorouracil]: the IC50 in the series on V79MZ cells (setting [6]) worked out at 70 µM. It took 80 µM to reach half-maximal inhibition in “in vitro” (IC50 at 24 h). The “difference in cytotoxicity between CYP1B1 expressing and non-expressing cells” value with V79MZh1B1 cells is listed as “no significant difference”.
